Tested on: Erythrozyten-Aggregation
Experiment: Erythrocyte aggregation in human blood, Mini-Erythrozyten-Aggregometer (Myrenne)
Type: cell-based, Humanblut gesunder Spender
Conditions: 10⁻⁵ M, haematocrit 45 %, difference between control baseline and substance solution, two experiments, different donors, index dimensionless
Description: Die Bestimmung der Erythrozyten-Aggregation als Parameter für die Hämorheologie erfolgte mit dem Mini-Erythrozyten-Aggregometer der Fa. Myrenne, Roetgen¹). Als Maß gibt dieses Gerät einen dimensionslosen Index an, der mit steigender Aggregationstendenz zunimmt.
Die Untersuchungen wurden mit dem Humanblut gesunder Spender durchgeführt. Das auf einen Haematokrit von 45 % eingestellte Blut wurde mit der Kontrollösung oder den Substanzlösungen inkubiert. Anschließend wurde die Erythrozyten-Aggregation gemessen. Jede Substanz wurde bei einer Konzentration von 10⁻⁵ M untersucht. Pro Substanz wurden zwei Versuche mit dem Blut verschiedener Spender durchgeführt. Es wurde die Differenz der Aggregationsindices zwischen dem Ausgangswert der Kontrollösung und den Werten der Substanzlösung errechnet. Diese Werte sind in der folgenden Tabelle aufgelistet.

Compound | Differenz der Erythrozytenaggregationsindices (E₂-E₁)
CN1C(=O)C(C)(C)c2cc(-c3c[nH]c(-c4ccccc4)n3)ccc21 [Beispiel 17, 1,3-Dihydro-1,3,3-trimethyl-5-[2-phenyl-4(1H)-imidazolyl]-(2H)-indol-2-on] | -8.6
CC1(C)C(=O)Nc2ccc(-c3c[nH]c(-c4ccc(Cl)cc4)n3)cc21 [Beispiel 6, 1,3-Dihydro-3,3-dimethyl-5-[2-(4-chlorphenyl)-4(1H)-imidazolyl]-(2H)-indol-2-on] | -8.2
CC1(C)CC(=O)Nc2ccc(-c3c[nH]c(-c4ccccc4)n3)cc21 [Beispiel 14, 3,4-Dihydro-4,4-dimethyl-6-[2-phenyl-4(1H)-imidazolyl]-2(1H)-chinolinon] | -7.2
CCN1C(=O)C(C)(C)c2cc(-c3c[nH]c(-c4ccc(F)cc4)n3)ccc21 [Beispiel 5, 1,3-Dihydro-3,3-dimethyl-1-ethyl-5-[2-(4-fluorphenyl)-4(1H)-imidazolyl]-(2H)-indol-2-on] | -8.7

Source: patent EP0497852B1, “BICYCLO-IMIDAZOLES, PROCESS FOR PRODUCING THEM AND DRUGS CONTAINING THEM” (BOEHRINGER MANNHEIM GMBH, priority 1989, dated 1991)
